Among the test systems are LXFL 529 NSCLC; KM20L2 colon; DMS 273 small cell lung; M19-MEL melanoma; DU-145 prostate; MDA-MB-231 breast; HS 578T breast; T-47D breast; MCF7 breast; BT-549 breast.
Holding throughout (assay): NCI tumour cell line growth inhibition, 48 h

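Assay format: 96-well plates, 48-hour exposure. GI50 marks 50% less growth. TGI denotes the concentration required for complete inhibition of growth.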 A value given as a limit tells only on which side of the number the result lay.

In the case of `COc1cc2cc3c4c(cc(OC)c(OC)c4c2cc1OC)CCN3C(=O)CCCC(=O)O`, the TGI with LXFL 529 NSCLC, in the test on KM20L2 colon, in the test with DMS 273 small cell lung and with M19-MEL melanoma was over 100 µM throughout.

In the case of `CCCOc1ccc(/C(Cl)=C(\C=O)c2ccc(OC)c(OC)c2)cc1OCCC`, the TGI is 80.9 µM in the test on LXFL 529 NSCLC, over 100 µM with KM20L2 colon, 40.1 µM with DMS 273 small cell lung and 31.1 µM in the test with M19-MEL melanoma.

With `O=C1C=C2S[C@H]3C[C@]2(C=C1Br)c1c(c(O)c2c4c1=NCCC=4C=N2)N3`, the TGI in the test with DU-145 prostate turned out to be 4.09 µM; in the test on LXFL 529 NSCLC, 0.395 µM; in the test on MDA-MB-231 breast, 1.16 µM; in the test on HS 578T breast, 3.48 µM; in the test with KM20L2 colon it was 1.93 µM; in the test with T-47D breast it was 0.89 µM. The TGI with DMS 273 small cell lung was determined as 2.39 µM.

`O=C(CCc1nnc2s/c(=C\c3ccccc3)c(=O)n12)Nc1cc(Cl)ccc1Cl`: the TGI in the test on LXFL 529 NSCLC, with KM20L2 colon, in the test with DMS 273 small cell lung and with M19-MEL melanoma was over 100 µM in each case.

For `COC(=O)CCC(NC(=S)N/N=C(\C)c1ccccn1)C(=O)OC` (stereo not given), the TGI in the test on LXFL 529 NSCLC, in the test on KM20L2 colon and in the test with M19-MEL melanoma was over 100 µM in each case.

For `NC(=O)c1ccccc1NC(=O)C(=O)C(C(=O)c1ccc2ccccc2c1)C1OC(=O)c2ccccc21` (stereo not given), the TGI in the test on LXFL 529 NSCLC was found to be 21.9 µM; in the test with KM20L2 colon, 81.4 µM; with DMS 273 small cell lung, 38.5 µM; with M19-MEL melanoma, 25.5 µM.

For `COC(=O)C(C(=O)C(=O)Nc1cccc(O)c1)c1nc2ccc(Cl)cc2[nH]c1=O` (stereo not given), the TGI in the test on LXFL 529 NSCLC, in the test with KM20L2 colon and with M19-MEL melanoma was over 100 µM in each case.

`CN(C)c1cccc(-c2cc(=O)c3ccccc3[nH]2)c1`: the TGI with LXFL 529 NSCLC, in the test on KM20L2 colon, in the test with DMS 273 small cell lung and with M19-MEL melanoma was over 100 µM throughout. For the same compound, the GI50 with KM20L2 colon is 34.5 µM.

Take `NC(=S)N/N=C(/CC(=O)c1ccc([N+](=O)[O-])cc1)C(=O)Nc1ncc([N+](=O)[O-])s1`: the TGI with LXFL 529 NSCLC, in the test on KM20L2 colon and in the test with M19-MEL melanoma was over 100 µM each time.

For the compound `OC(c1ccccc1)(c1ccccc1)c1ccccn1`, the TGI in the test on LXFL 529 NSCLC, with KM20L2 colon, in the test on DMS 273 small cell lung and in the test with M19-MEL melanoma was over 100 µM throughout.

As for `O=C1CCCCC/C=C2/CC[C@H](Sc3ccccc3)[C@@H]12`, the TGI with LXFL 529 NSCLC, with KM20L2 colon, in the test on DMS 273 small cell lung and in the test with M19-MEL melanoma was over 100 µM in each case.

In the case of `O=C(NCCCN1CCN(CCCNC(=O)c2cnc3ccccc3n2)CC1)c1cnc2ccccc2n1`, the TGI in the test on LXFL 529 NSCLC, in the test on KM20L2 colon, in the test on DMS 273 small cell lung and in the test on M19-MEL melanoma was over 100 µM throughout.

Consider `CN(C)CCNC(=O)c1cccc2nc3ccc4ccccc4c3nc12`, for which the TGI in the test on DMS 273 small cell lung is 0.246 µM; in the test with M19-MEL melanoma it was 0.224 µM.

Take `CCc1cccc(C(C)CC)c1N=C(NC(=O)c1ccccc1C(=O)NC(=Nc1c(CC)cccc1C(C)CC)SC)SC` (stereo not given): the TGI in the test on LXFL 529 NSCLC is over 100 µM; with KM20L2 colon, 79.6 µM; in the test on M19-MEL melanoma, over 100 µM.

As for `CCOC(=O)CC(=O)ON(C)C(=O)Cc1ccccc1`, the TGI in the test with LXFL 529 NSCLC, in the test with KM20L2 colon and in the test on M19-MEL melanoma was over 100 µM throughout.

Consider `COc1ccc(/C=C/C(=O)c2sc(N)nc2C)cc1`, for which the TGI in the test on KM20L2 colon, in the test on DMS 273 small cell lung and in the test with M19-MEL melanoma was over 100 µM throughout.

Consider `Cc1cc2c3ccccc3n(C)c2c2c1C(=O)c1ccccc1C2=O`, for which the TGI stood at 35.5 µM in the test with LXFL 529 NSCLC, 50.1 µM with DMS 273 small cell lung and 10.3 µM with M19-MEL melanoma.

For `Nc1ccc2c(c1)C(=O)c1ccc(F)cc1-2`, the TGI with MCF7 breast, with DU-145 prostate, in the test with MDA-MB-231 breast, with HS 578T breast, with T-47D breast and in the test on BT-549 breast was over 100 µM throughout.

Consider `O=C1NC(=NCc2cccs2)SC1Cc1ccc2ncccc2c1` (stereo not given), for which the GI50 in the test on MCF7 breast is 8.79 µM; in the test with DU-145 prostate, over 25 µM; in the test with MDA-MB-231 breast, over 25 µM; in the test on HS 578T breast, 9.87 µM; in the test on T-47D breast, 24.9 µM; with BT-549 breast it was 20.5 µM. The TGI with MCF7 breast, with DU-145 prostate, in the test with MDA-MB-231 breast, in the test with HS 578T breast, in the test on T-47D breast and in the test with BT-549 breast was over 25 µM each time.

Turning to `COC(=O)[C@]12CC[C@@H](C)[C@H](C)[C@@H]1C1=CC[C@@H]3[C@@]4(C)C[C@@H](OC(=O)c5ccco5)[C@H](O)[C@@](C)(CO)[C@@H]4[C@H](O)C[C@@]3(C)[C@]1(C)CC2`, the GI50 is 1.8 µM in the test with MCF7 breast; 2.78 µM with DU-145 prostate; 2.23 µM in the test on MDA-MB-231 breast; 2.24 µM in the test on HS 578T breast; 3.13 µM with T-47D breast; 2.41 µM with BT-549 breast. The TGI is 3.71 µM with MCF7 breast; 8.11 µM in the test with DU-145 prostate; 4.8 µM in the test with MDA-MB-231 breast; 7.4 µM with HS 578T breast; 9.17 µM in the test with T-47D breast; 5.21 µM with BT-549 breast.

Take `O=C1Cc2cc(CCn3ccnc3)c(Cl)cc2N1`: the GI50 with MCF7 breast is 4.12 µM; with DU-145 prostate, 8.02 µM; with MDA-MB-231 breast, 5.18 µM; in the test on HS 578T breast, 0.873 µM; with T-47D breast, 75.6 µM; with BT-549 breast, 9.51 µM. Further, the TGI with MCF7 breast is over 100 µM; in the test on DU-145 prostate, over 100 µM; in the test on MDA-MB-231 breast, over 100 µM; with HS 578T breast, 9.92 µM; in the test on T-47D breast it was over 100 µM; in the test with BT-549 breast it was over 100 µM.

Regarding `C/C(=N\NC(=O)CC(=O)Nc1ccc(C)cc1)c1cc2ccccc2oc1=O`, the TGI in the test with KM20L2 colon, with DMS 273 small cell lung and with M19-MEL melanoma was over 100 µM throughout.

Take `COC1=C(OC)C(=O)C(/C=C(\C)C(=O)O)=C(C)C1=O`: the GI50 with MCF7 breast, in the test with DU-145 prostate, in the test with MDA-MB-231 breast, in the test with HS 578T breast, with T-47D breast and in the test with BT-549 breast was over 100 µM each time. The TGI with MCF7 breast, with DU-145 prostate, with MDA-MB-231 breast, in the test with HS 578T breast, with T-47D breast and in the test on BT-549 breast was over 100 µM each time.
